From patent publication US20240292836A1, “AGENTS FOR REPELLING, KNOCKING DOWN, AND/OR KILLING BLOOD-SUCKING ARTHROPODS AND USES THEREOF” (The United States of America, as represented by the …, priority 2023, published 2024)

Assays:
[1] = system: female Aedes aegypti adults; assay: Arm-in-cage cloth-patch in vivo assay (topical repellency); settings: for Minimum Effective Dose (MED): Mean ± SEM, lowest dosage with five or fewer bites through repellent-treated cloth in 1-minute exposure, at least three volunteers; for topical repellency (in words): initial screening dose of 0.187 mg/cm^2
Excerpt: Arm-in-Cage Test Cloth-Patch in vivo Assay Pyrethroid-susceptible yellow fever mosquitoes Ae. aegypti (Orlando strain) were reared in the United States Department of Agriculture Mosquito and Fly Research Unit in Gainesville, FL under standard protocols. Three to seven-day-old, starved female mosquitoes were collected using a “draw box” (Posey, K. and Schreck, C. E, 1981, “An airflow apparatus for selecting female mosquitoes for use in repellent and attraction studies” Mosquito News 41: 566-568; US. Department of Agriculture, 1977, Repellent activity of compounds submitted by Walter Reed Army Institute of Research. Part 1. Protection time and minimum effective dosage against Aedes aegypti mosquitoes. Tech. Bull. No. 1549) and were placed in cages at an approximate density 200 mosquitoes/cage. Repellency was determined according to a standard protocol (Bernier, U. R., et al, 2022. “Evaluation and application of repellent-treated uniform/clothing and textiles against vector mosquitoes,” In Advances in Arthropod Repellents (pp. 69-94). Academic Press) and reported as the minimum effective dosage (MED). […] A nylon leg stocking was placed over the arm to prevent direct contact of the repellent-treated cloth patch with the skin. […]. Cloth was treated by placing a rolled bandage (50 cm^2) into each vial containing 1 mL of solution and allowing the patch to absorb the solution completely. The cloth was taped over a 4 by 9-cm opening cut into a vinyl plastic sheet that was draped around the volunteers' arms and taped in place. The cloth was air-dried approximately 15 min before conducting each test. The work reported here is an average of the MED for at least three volunteers. Each volunteer covered his or her arm with a nylon stocking to avoid contact between the skin and the treated cloth and wore a rubber glove to prevent mosquito bites on the hand.
. The minimum effective dose (MED) was determined for each repellent and subject, defined as the lowest concentration that prevents biting). MEDs from each subject were pooled and reported as the average among all replicates/subjects with SEM. A minimum of 3 replicates were performed on at least three human subjects. Written informed consent was obtained for all human subjects used in this study in accordance with IRB protocol #20193320, as approved by the WCG™ IRB.
(§1) Statistical Analyses: Student's T-test was used to compare the means between tested compound and DEET and Icaridin in the arm-in-cage in vivo assay and neurophysiological study.

[2] = system: female Aedes aegypti adults; assay: High-throughput in vitro screening assay, spatial repellency; assay type: in vivo; settings: for 30-minute RD50 compared with that of DEET: 30 minutes, α = 0.05; for RD50 (30 min), half-repellent dose / RD50 (60 min), half-repellent dose: dose per filter paper surface area, 95% CI; for spatial repellency (in words): highest-tested dose of 100 μg/cm^2
Excerpt: A high-throughput screening method for evaluating spatial repellency and vapor toxicity, described by Jiang S., et al. (2019, “High-Throughput Screening Method for Evaluating Spatial Repellency and Vapour Toxicity to Mosquitoes,” Med. Vet. Entomol. 33: 388-396), was used for this study. As shown in FIG. 2 of Jiang S., et al., assay tubes were constructed by covering 12.5 cm glass tubes on one side with netting secured by a rubber band. The tubes were used in horizontal orientation. Adult mosquitos 2-7 days old were anesthetized on ice for approximately 5 minutes and 16 females were transferred to each tube. The other end of the tube was then closed with netting and a rubber band.
The conical ends of 50 mL centrifuge tubes (Eppendorf, Enfield, Connecticut, USA) were cut at approximately the 10 mL mark to create the end caps for the assay tubes. […] For repellency tests, filter papers for the “untreated” side of the assay tube received pure acetone, whereas filter papers for the “treated” side received acetone solution containing a dissolved compound of interest. For knockdown tests, both filter papers were treated with acetone solution containing one or more compounds of interest. Acetone on both filter papers served as negative controls.
For repellency assays, filter papers were given 10 minutes of evaporation time before being placed into the end caps with forceps (Jiang S., et al. 2019, Supra). For knockdown assays, filter papers were given 5 minutes of evaporation time before being placed into the end caps. […] Assay tubes were capped such that the cap securely overlapped the glass but approximately 5 mm of space was left between the netting and the filter paper so that the mosquitos could not contact the filter paper.
Assay tubes were placed on a white polystyrene platform with wooden sticks glued flatly across it to prevent the tubes from rolling. A straight black line was drawn down the center of the platform and assay tubes were centered on the line at the beginning of the tests. In repellency assays, data were collected at 15, 30, and 60 minutes after the end caps were placed on the assay tubes. Assay tubes were not disturbed for the entire 60 minutes. At each time point, the number of mosquitos that remained on the treated side was visually assessed and recorded. The treated side was alternated with each set of tests. For repellency tests, DEET at a dose of 100 μg/cm^2 served as the positive control.
For the high-throughput in vitro screening assays, analyses were conducted with R version 4.2.2 statistical software (R Core Team, 2022, “R: a language and environment for statistical computing. R foundation for statistical computing,” Vienna, Austria). Concentrations were calculated in terms of filter paper surface area (μg/cm^2) for repellency assays and in terms of assay tube volume (μg/cm^3) for knockdown assays.
Half-repellent (RD50), half-knockdown (KD50), and half-lethal (LD50) doses were calculated from dose-response curves (DRCs) obtained by four-parameter log-logistic equation models generated using the drc package (Dose Response Curve Analyses Software; Ritz C. et al., 2015, “Dose-response analysis using R,” PLOS ONE 10: e0146021). For repellency test analysis, the upper and lower asymptotes for the proportion of mosquitos remaining on the treated side were fixed at 0.5 and 0, respectively. For KD and mortality test analysis, the upper and lower asymptotes for the proportion of mosquitos knocked down or killed were fixed at 1.0 and 0, respectively. To determine whether RD50, KD50, or LD50 values differed across compounds at each timepoint, a joint model assuming different values for each compound and a null model that assumed a single value for all compounds were compared with a likelihood ratio test.

[3] = system: Aedes aegypti larvae central nervous system; assay: Neurophysiological experiment, nerve firing of mosquito central nervous system
Protocol: Neurophysiological Experiment—Action on Mosquito Central Nervous System All compounds were screened at 100 μM on the central nervous system of 4th instar Aedes aegypti larvae. Nerve firing was reported as the percentage firing compared to a pre-application baseline period that was determined approximately 3 minutes prior to drug application, similar to methods outlined in Norris, E. J. and Bloomquist J. R. (2021, “Recording central neurophysiological output from mosquito larvae for neuropharmacological and insecticide resistance studies,” J. Insect Physiol. 135: 104319). […] Compound potency was characterized by “time-to-nerve block” defined as the first time point where significant nerve block was observed compared to the vehicle control via a Student T-test, p<0.05 as shown in Table 1 and FIG. 2.
as §1

[4] = system: female Aedes aegypti adults; assay: High-throughput in vitro screening assay, knockdown and mortality; settings: for KD50 (30 min), half-knockdown dose / KD50 (60 min), half-knockdown dose: dose per assay tube volume, 95% CI; for time at which knockdown began: FIG. 6A, 6B, 6D; for knockdown and mortality activities (in words): in vivo
[5] = at 25.00° C.; cited from earlier work
Vapor pressure = assay type: physicochemical; settings: MFA versus MDMA
[6] = literature evaluations; cited from earlier work

Compound	Minimum Effective Dose (MED) [1] [mg/cm^2]	30-minute RD50 compared with that of DEET [2]	Time to nerve block ([3]; 100 μM on central nervous system of 4th instar larvae) [min]	KD50 (30 min), half-knockdown dose [4] [µg/mL]	KD50 (60 min), half-knockdown dose [4] [µg/mL]	RD50 (30 min), half-repellent dose [2] [μg/cm^2]	vapor pressure [5] [mmHg]	RD50 (60 min), half-repellent dose [2] [μg/cm^2]	spatial repellency (in words) [2]	vapor pressure, times lower than that of MDMA (Vapor pressure) [times]	safety (in words) [6]	topical repellency (in words) [1]	time at which knockdown began [4] [min]	knockdown and mortality activities (in words) [4]	nerve block (in words) ([3]; 100 μM, 4th instar larvae)	MED, times lower than the initial screening dose ([1]; relative to initial screening dose of 0.187 mg/cm^2) [times]
COC(=O)c1ccccc1OC [M2MOB, methyl 2-methoxybenzoate]	0.049	not significantly different from that of DEET	24	>7	>7	–	–	–	–	–	–	–	–	–	–	–
COC(=O)c1ccccc1[N+](=O)[O-] [M2NB, methyl 2-nitrobenzoate]	0.025	not significantly different from that of DEET	–	>7	>7	–	–	–	–	–	–	–	–	–	–	–
COC(=O)c1ccccc1N(C)C [MDMA, methyl N,N-dimethyl anthranilate]	0.039	significantly lower than that of DEET	–	–	–	6.58	0.01	–	–	–	–	–	–	–	–	–
COC(=O)c1ccccc1NC=O [MFA, methyl N-formylanthranilate]	0.047	–	–	–	–	>100	0.000013	>100	did not show spatial repellencies	769	No adverse effects to humans have been found	–	–	–	–	–
CC(C)COC(=O)c1ccccc1 [iBB, iso-butyl benzoate]	>0.187	not significantly different from that of DEET	–	5.26	5.29	–	–	–	–	–	–	did not show any topical repellencies	5	exhibited considerable knockdown and mortality activities	–	–
CC(C)CCOC(=O)c1ccccc1 [iPeB, iso-pentyl benzoate]	>0.187	not significantly different from that of DEET	–	3.71	3.40	–	–	–	–	–	–	did not show any topical repellencies	5	exhibited considerable knockdown and mortality activities	–	–
CCCCOC(=O)c1ccccc1 [nBB, n-butyl benzoate]	0.148	–	–	–	3.09	>100	–	>100	did not show spatial repellencies	–	–	demonstrated repellency at doses lower than 0.187 mg/cm^2 on at least one test subject	5	exhibited considerable knockdown and mortality activities	–	–
CCCCCCOC(=O)c1ccccc1 [nHB, n-hexyl benzoate]	>0.187	not significantly different from that of DEET	–	7.06	4.72	–	–	–	–	–	–	did not show any topical repellencies	–	exhibited considerable knockdown and mortality activities	–	–
CCCCCOC(=O)c1ccccc1 [nPeB, n-pentyl benzoate]	>0.187	not significantly different from that of DEET	–	4.77	3.98	–	–	–	–	–	–	did not show any topical repellencies	–	exhibited considerable knockdown and mortality activities	Nerve block was produced by all compounds screened at this concentration, except for compound nPeB	–
CCCOC(=O)c1ccccc1NC=O [nPrFA, n-Propyl N-formylanthranilate]	0.0028	–	–	–	–	>100	–	>100	did not show any spatial repellencies	–	–	–	–	–	–	64
